test system: VSV-G-pseudotype virus (pVSV-G); test: microbe, parasite or virus in culture; assay type: cell-based; details: Vesicular stomatitis virus, read-out: %inh@10 µM (pVSV-G)

| Compound | inhibition at 10 µM [%] |
| --- | --- |
| O=C(CCNCCC1CCN(Cc2ccccc2)CC1)Nn1c2ccccc2c2ccccc21 [Compound 2] | 10 |
| CN1CCN(CCC(=O)Nn2c3ccccc3c3ccccc32)CC1 [Compound 3] | 10 |
| O=C(CCN1CCCC1)Nn1c2ccccc2c2ccccc21 [Compound 6] | 9 |
| O=C(CCN1CCCCC1)Nn1c2ccccc2c2ccccc21 [Compound 7] | 30 |
| O=C(CNCCC1CCN(Cc2ccccc2)CC1)NC1c2ccccc2-c2ccccc21 [Compound 9, 2-((2-(1-Benzylpiperidin-4-yl)ethyl)amino)-N-(9H-fluoren-9-yl)acetamide] | -10 |
| CN1CCN(CCC(=O)NN(c2ccccc2)c2ccccc2)CC1 [Compound 14, 3-(4-Methylpiperazin-1-yl)-N′,N′-diphenylpropanehydrazide] | 2 |
| O=C(CNCCC1CCN(Cc2ccccc2)CC1)NN(Cc1ccccc1)c1ccccc1 [Compound 30, N′-Benzyl-2-((2-(1-benzylpiperidin-4-yl)ethyl)amino)-N′-phenylacetohydrazide] | -25 |
| O=C(CCNCCN1CCN(Cc2ccccc2)CC1)NN(Cc1ccccc1)c1ccccc1 [Compound 32, N′-Benzyl-3-((2-(4-benzylpiperazin-1-yl)ethyl)amino)-N′-phenylpropanehydrazide] | -36 |

test system: EBOV-GP-Pseudotype Virus (pEBOV); test: not given; details: not given

| Compound | SI (pEBOV) (CC50/EC50) | antiviral activity against pEBOV, in words |
| --- | --- | --- |
| O=C(CCNCCC1CCN(Cc2ccccc2)CC1)Nn1c2ccccc2c2ccccc21 [Compound 2] | 2.87 |  |
| CN1CCN(CCC(=O)Nn2c3ccccc3c3ccccc32)CC1 [Compound 3] | 62.5 |  |
| CN(C)CC(=O)Nn1c2ccccc2c2ccccc21 [Compound 4] |  | inactive |
| CN(C)CCC(=O)Nn1c2ccccc2c2ccccc21 [Compound 5] |  | inactive |
| O=C(CCN1CCCC1)Nn1c2ccccc2c2ccccc21 [Compound 6] | 21.7 |  |
| O=C(CCN1CCCCC1)Nn1c2ccccc2c2ccccc21 [Compound 7] | 1.78 |  |
| O=C(CCl)Nn1c2ccccc2c2ccccc21 [Compound 8] |  | inactive |
| O=C(CNCCC1CCN(Cc2ccccc2)CC1)NC1c2ccccc2-c2ccccc21 [Compound 9, 2-((2-(1-Benzylpiperidin-4-yl)ethyl)amino)-N-(9H-fluoren-9-yl)acetamide] | 93 |  |
| CN1CCN(CCC(=O)NN(c2ccccc2)c2ccccc2)CC1 [Compound 14, 3-(4-Methylpiperazin-1-yl)-N′,N′-diphenylpropanehydrazide] | 358 |  |
| O=C(CCN1CCCCC1)NN(c1ccccc1)c1ccccc1 [Compound 19, N′,N′-Diphenyl-3-(piperidin-1-yl)propanehydrazide] |  | inactive |
| O=C(CNCCC1CCN(Cc2ccccc2)CC1)NN(Cc1ccccc1)c1ccccc1 [Compound 30, N′-Benzyl-2-((2-(1-benzylpiperidin-4-yl)ethyl)amino)-N′-phenylacetohydrazide] | 62 |  |
| O=C(CCNCCC1CCN(Cc2ccccc2)CC1)NN(Cc1ccccc1)c1ccccc1 [Compound 31, N′-Benzyl-3-((2-(1-benzylpiperidin-4-yl)ethyl)amino)-N′-phenylpropanehydrazide] |  | inactive |
| O=C(CCNCCN1CCN(Cc2ccccc2)CC1)NN(Cc1ccccc1)c1ccccc1 [Compound 32, N′-Benzyl-3-((2-(4-benzylpiperazin-1-yl)ethyl)amino)-N′-phenylpropanehydrazide] | 19.2 |  |
| CN1CCN(CC(=O)NN(Cc2ccccc2)c2ccccc2)CC1 [Compound 33] |  | inactive |
| CN1CCN(CCC(=O)NN(Cc2ccccc2)c2ccccc2)CC1 [Compound 34, N′-Benzyl-3-(4-methylpiperazin-1-yl)-N′-phenylpropanehydrazide] |  | inactive |

test system: wild-type Zaire EBOV Mayinga 1976 strain (EBOV May); test: not given; details: not given

| Compound | SI (CC50/EC50), replicative EBOV |
| --- | --- |
| O=C(CCNCCC1CCN(Cc2ccccc2)CC1)Nn1c2ccccc2c2ccccc21 [Compound 2] | 9.1 |
| O=C(CNCCC1CCN(Cc2ccccc2)CC1)NC1c2ccccc2-c2ccccc21 [Compound 9, 2-((2-(1-Benzylpiperidin-4-yl)ethyl)amino)-N-(9H-fluoren-9-yl)acetamide] | 134.6 |

test system: not listed separately; test: in vitro; details: human

| Compound | CC50 at 24 h [µM] | CC50 [µM] |
| --- | --- | --- |
| O=C(CCNCCC1CCN(Cc2ccccc2)CC1)Nn1c2ccccc2c2ccccc21 [Compound 2] | 0.46 |  |
| CN1CCN(CCC(=O)Nn2c3ccccc3c3ccccc32)CC1 [Compound 3] | 150 |  |
| O=C(CCN1CCCC1)Nn1c2ccccc2c2ccccc21 [Compound 6] | 28 |  |
| O=C(CCN1CCCCC1)Nn1c2ccccc2c2ccccc21 [Compound 7] | 5 |  |
| O=C(CNCCC1CCN(Cc2ccccc2)CC1)NC1c2ccccc2-c2ccccc21 [Compound 9, 2-((2-(1-Benzylpiperidin-4-yl)ethyl)amino)-N-(9H-fluoren-9-yl)acetamide] | 159 |  |
| CN1CCN(CCC(=O)NN(c2ccccc2)c2ccccc2)CC1 [Compound 14, 3-(4-Methylpiperazin-1-yl)-N′,N′-diphenylpropanehydrazide] |  | > 100 |
| O=C(CN1CCN(c2ccccc2)CC1)NN(c1ccccc1)c1ccccc1 [Compound 15, N′,N′-Diphenyl-2-(4-phenylpiperazin-1-yl)acetohydrazide] |  | > 10 |
| O=C(CCN1CCN(c2ccccc2)CC1)NN(c1ccccc1)c1ccccc1 [Compound 16, N′,N′-Diphenyl-3-(4-phenylpiperazin-1-yl)propanehydrazide] |  | > 10 |
| CCOC(=O)C1CCN(CC(=O)NN(c2ccccc2)c2ccccc2)CC1 [Compound 17, Ethyl 1-(2-(2,2-Diphenylhydrazinyl)-2-oxoethyl)piperidine-4-carboxylate] |  | > 10 |
| CCOC(=O)C1CCN(CCC(=O)NN(c2ccccc2)c2ccccc2)CC1 [Compound 18, Ethyl 1-(3-(2,2-Diphenylhydrazinyl)-3-oxopropyl)piperidine-4-carboxylate] |  | > 10 |
| O=C(CCN1CCCCC1)NN(c1ccccc1)c1ccccc1 [Compound 19, N′,N′-Diphenyl-3-(piperidin-1-yl)propanehydrazide] |  | > 10 |
| O=C(CN1CCOCC1)NN(c1ccccc1)c1ccccc1 [Compound 20, 2-Morpholino-N′,N′-diphenylacetohydrazide] |  | > 10 |
| O=C(CNCCC1CCN(Cc2ccccc2)CC1)NN(Cc1ccccc1)c1ccccc1 [Compound 30, N′-Benzyl-2-((2-(1-benzylpiperidin-4-yl)ethyl)amino)-N′-phenylacetohydrazide] | 106 |  |
| O=C(CCNCCC1CCN(Cc2ccccc2)CC1)NN(Cc1ccccc1)c1ccccc1 [Compound 31, N′-Benzyl-3-((2-(1-benzylpiperidin-4-yl)ethyl)amino)-N′-phenylpropanehydrazide] |  | > 10 |
| O=C(CCNCCN1CCN(Cc2ccccc2)CC1)NN(Cc1ccccc1)c1ccccc1 [Compound 32, N′-Benzyl-3-((2-(4-benzylpiperazin-1-yl)ethyl)amino)-N′-phenylpropanehydrazide] | 70 |  |
| CN1CCN(CC(=O)NN(Cc2ccccc2)c2ccccc2)CC1 [Compound 33] |  | > 100 |
| CN1CCN(CCC(=O)NN(Cc2ccccc2)c2ccccc2)CC1 [Compound 34, N′-Benzyl-3-(4-methylpiperazin-1-yl)-N′-phenylpropanehydrazide] |  | > 10 |

test system: not listed separately; test: in vitro; details: chlorocebus sabaeus

| Compound | CC50 at 24 h [µM] | CC50 [µM] |
| --- | --- | --- |
| O=C(CCNCCC1CCN(Cc2ccccc2)CC1)Nn1c2ccccc2c2ccccc21 [Compound 2] | 4.75 |  |
| O=C(CNCCC1CCN(Cc2ccccc2)CC1)NC1c2ccccc2-c2ccccc21 [Compound 9, 2-((2-(1-Benzylpiperidin-4-yl)ethyl)amino)-N-(9H-fluoren-9-yl)acetamide] | 33.6 |  |
| CN1CCN(CCC(=O)NN(c2ccccc2)c2ccccc2)CC1 [Compound 14, 3-(4-Methylpiperazin-1-yl)-N′,N′-diphenylpropanehydrazide] |  | > 100 |
| CN1CCN(CC(=O)NN(Cc2ccccc2)c2ccccc2)CC1 [Compound 33] |  | > 100 |

test system: EBOV-GP-Pseudotype Virus (pEBOV); test: microbe, parasite or virus in culture; details: Zaire ebolavirus, HeLa, 48 h, read-out: EC50 (μM) (pEBOV)

| Compound | EC50 [µM] |
| --- | --- |
| O=C(CCNCCC1CCN(Cc2ccccc2)CC1)Nn1c2ccccc2c2ccccc21 [Compound 2] | 0.16 |
| CN1CCN(CCC(=O)Nn2c3ccccc3c3ccccc32)CC1 [Compound 3] | 2.4 |
| O=C(CCN1CCCC1)Nn1c2ccccc2c2ccccc21 [Compound 6] | 1.29 |
| O=C(CCN1CCCCC1)Nn1c2ccccc2c2ccccc21 [Compound 7] | 2.8 |
| O=C(CNCCC1CCN(Cc2ccccc2)CC1)NC1c2ccccc2-c2ccccc21 [Compound 9, 2-((2-(1-Benzylpiperidin-4-yl)ethyl)amino)-N-(9H-fluoren-9-yl)acetamide] | 1.7 |
| CN1CCN(CCC(=O)NN(c2ccccc2)c2ccccc2)CC1 [Compound 14, 3-(4-Methylpiperazin-1-yl)-N′,N′-diphenylpropanehydrazide] | 0.27 |
| O=C(CN1CCN(c2ccccc2)CC1)NN(c1ccccc1)c1ccccc1 [Compound 15, N′,N′-Diphenyl-2-(4-phenylpiperazin-1-yl)acetohydrazide] | > 100 |
| O=C(CNCCC1CCN(Cc2ccccc2)CC1)NN(Cc1ccccc1)c1ccccc1 [Compound 30, N′-Benzyl-2-((2-(1-benzylpiperidin-4-yl)ethyl)amino)-N′-phenylacetohydrazide] | 1.05 |
| O=C(CCNCCN1CCN(Cc2ccccc2)CC1)NN(Cc1ccccc1)c1ccccc1 [Compound 32, N′-Benzyl-3-((2-(4-benzylpiperazin-1-yl)ethyl)amino)-N′-phenylpropanehydrazide] | 3.63 |

same assay, conditions: Zaire ebolavirus, M-HeLa, 48 h, read-out: %inh@10 μM (pEBOV)

| Compound | inhibition at 10 µM [%] |
| --- | --- |
| CN(C)CC(=O)Nn1c2ccccc2c2ccccc21 [Compound 4] | < 75 |
| CN(C)CCC(=O)Nn1c2ccccc2c2ccccc21 [Compound 5] | < 75 |
| O=C(CCl)Nn1c2ccccc2c2ccccc21 [Compound 8] | < 75 |
| O=C(CN1CCN(c2ccccc2)CC1)NN(c1ccccc1)c1ccccc1 [Compound 15, N′,N′-Diphenyl-2-(4-phenylpiperazin-1-yl)acetohydrazide] | 8 |
| O=C(CCN1CCN(c2ccccc2)CC1)NN(c1ccccc1)c1ccccc1 [Compound 16, N′,N′-Diphenyl-3-(4-phenylpiperazin-1-yl)propanehydrazide] | 70 |
| CCOC(=O)C1CCN(CC(=O)NN(c2ccccc2)c2ccccc2)CC1 [Compound 17, Ethyl 1-(2-(2,2-Diphenylhydrazinyl)-2-oxoethyl)piperidine-4-carboxylate] | 47 |
| CCOC(=O)C1CCN(CCC(=O)NN(c2ccccc2)c2ccccc2)CC1 [Compound 18, Ethyl 1-(3-(2,2-Diphenylhydrazinyl)-3-oxopropyl)piperidine-4-carboxylate] | 24 |
| O=C(CCN1CCCCC1)NN(c1ccccc1)c1ccccc1 [Compound 19, N′,N′-Diphenyl-3-(piperidin-1-yl)propanehydrazide] | 60 |
| O=C(CN1CCOCC1)NN(c1ccccc1)c1ccccc1 [Compound 20, 2-Morpholino-N′,N′-diphenylacetohydrazide] | -1 |
| O=C(CCNCCC1CCN(Cc2ccccc2)CC1)NN(Cc1ccccc1)c1ccccc1 [Compound 31, N′-Benzyl-3-((2-(1-benzylpiperidin-4-yl)ethyl)amino)-N′-phenylpropanehydrazide] | < 75 |
| CN1CCN(CC(=O)NN(Cc2ccccc2)c2ccccc2)CC1 [Compound 33] | 13 |
| CN1CCN(CCC(=O)NN(Cc2ccccc2)c2ccccc2)CC1 [Compound 34, N′-Benzyl-3-(4-methylpiperazin-1-yl)-N′-phenylpropanehydrazide] | < 75 |

test system: wild-type Zaire EBOV Mayinga 1976 strain (EBOV May); test: microbe, parasite or virus in culture; details: Zaire ebolavirus, Vero C1008, 72 h, read-out: EC50 (μM), replicative EBOV

| Compound | EC50 [µM] |
| --- | --- |
| O=C(CCNCCC1CCN(Cc2ccccc2)CC1)Nn1c2ccccc2c2ccccc21 [Compound 2] | 0.52 |
| O=C(CNCCC1CCN(Cc2ccccc2)CC1)NC1c2ccccc2-c2ccccc21 [Compound 9, 2-((2-(1-Benzylpiperidin-4-yl)ethyl)amino)-N-(9H-fluoren-9-yl)acetamide] | 0.25 |
| CN1CCN(CCC(=O)NN(c2ccccc2)c2ccccc2)CC1 [Compound 14, 3-(4-Methylpiperazin-1-yl)-N′,N′-diphenylpropanehydrazide] | > 100 |
| CN1CCN(CC(=O)NN(Cc2ccccc2)c2ccccc2)CC1 [Compound 33] | > 100 |
